Laboratory results: US12655173B2, “Hybrid amide derivatives of amphotericin B” (priority 2020, dated 2026)
≈ marks a conversion by molar mass, not a printed value.

Legend:
C. albicans SN250 = experiment: In vivo efficacy in murine candidiasis model (C. albicans SN250), female CD-1 mice, kidney fungal burden
Microsporum canis = experiment: MIC against yeasts (Table 3A); format: cell-based; conditions: 2 isolates
Fusarium solani = experiment: MIC against moulds; format: cell-based
[1] = system: A. funigatus (CEA10 strain); experiment: Efficacy study against pulmonary aspergillosis in neutropenic mice: survival; format: in vivo; conditions: 15 mg/kg QD IP for 7 days, monitored until day 14
Source text: Efficacy study (FIG. 22): Healthy mice were divided as 10 mice/group. […] Animals were infected with A. funigatus (CEA10 strain) (intranasal) on day 0. […] Survivability of the animals were monitored during the course of the study.

KIM1, LCN2, TIMP1, SPP1 = conditions: mouse, in vivo
Apophysomyces sp. = experiment: MIC against moulds; format: cell-based; conditions: 3 isolates; AmB (AmBisome)
Epidermophyton floccosum = experiment: MIC against yeasts (Table 3A); format: cell-based; conditions: 2 isolates
Mucor velutinosus = experiment: MIC against moulds; format: cell-based; conditions: 6 isolates, AmB (AmBisome)
Candida glabrata = experiment: MIC against yeasts; format: cell-based; conditions: Nakaseomyces glabratus; 5 isolates; Table 3A
[2] = Mouse single IV injection: mortality
A. terreus = experiment: MIC against moulds; format: cell-based
Mucor janssenii = experiment: MIC against moulds; format: cell-based; conditions: 6 isolates, AmB (AmBisome)
Candida tropicalis = experiment: MIC against yeasts; format: cell-based; conditions: 10 isolates, Table 3A
Fonsecaeu sp. = experiment: MIC against moulds; format: cell-based; conditions: 6 isolates; AmB (AmBisome)
[3] = UV-Vis sterol binding assay
Experimental: UV-Vis is Binding Assay (FIG. 1A): The protocol for the sterol binding assay (UV-Vis) was developed in our lab. Compounds were dissolved in DMSO at a final concentration of 1 mM. Sterol were first dissolved in CHCl3 (>200 mM) and then diluted to 1 mM concentration with DMSO To synthesize the complex 1 ul of compound solution was taken in a clean eppendorf tube (2 ml) and sterol solution (volume depends on the stoichiometry) was added to it and the volume was made up to 20 ul with DMSO. 0.98 ml of PBS buffer was added to the Eppendorf tube and mixed properly. The absorbance of the solution was measured after 30 mins of incubation.

A. calldoustus = experiment: MIC against moulds; format: cell-based; conditions: 6 isolates; AmB (AmBisome)
Cryptococcus neoformans = experiment: MIC against yeasts; format: cell-based
Blastomyces dermatitidis = experiment: MIC against moulds; format: cell-based; conditions: 5 isolates, AmB (AmBisome)
Scedosporium prolificans = experiment: MIC against yeasts (Table 3A); format: cell-based; conditions: Lomentospora prolificans, 2 isolates
A. niger = experiment: MIC against moulds; format: cell-based; conditions: 6 isolates, AmB (AmBisome)
Sporothrix schenckii = experiment: MIC against rare moulds resistant to AmB; format: cell-based; conditions: 6 isolates, Table 4
Candida albicans = experiment: MIC against yeasts; format: cell-based; conditions: 15 isolates, Table 3A
[4] = Tolerance study, IP dosing in immunocompromised mice, no infection; conditions: 25 mg/kg QD IP 7 days, observed 14 days
Histoplasma capsulatum = experiment: microbe, parasite or virus in culture; format: cell-based; conditions: for MIC Histoplasma capsulatum: 6 isolates, AmB (AmBisome)
Saksenaea sp. = experiment: MIC against moulds; format: cell-based; conditions: 4 isolates; AmB (AmBisome)
Malassezia furfur = experiment: MIC against yeasts (Table 3A); format: cell-based; conditions: 3 isolates
Scedosporium apiospermum = experiment: MIC against yeasts (Table 3A); format: cell-based; conditions: 2 isolates
P450 2C19 = P450 2C19 (Homo sapiens, UniProt P33261); experiment: P450 inhibition 2C19; format: in vitro ADME
Sequence of P450 2C19 (P33261 whole entry): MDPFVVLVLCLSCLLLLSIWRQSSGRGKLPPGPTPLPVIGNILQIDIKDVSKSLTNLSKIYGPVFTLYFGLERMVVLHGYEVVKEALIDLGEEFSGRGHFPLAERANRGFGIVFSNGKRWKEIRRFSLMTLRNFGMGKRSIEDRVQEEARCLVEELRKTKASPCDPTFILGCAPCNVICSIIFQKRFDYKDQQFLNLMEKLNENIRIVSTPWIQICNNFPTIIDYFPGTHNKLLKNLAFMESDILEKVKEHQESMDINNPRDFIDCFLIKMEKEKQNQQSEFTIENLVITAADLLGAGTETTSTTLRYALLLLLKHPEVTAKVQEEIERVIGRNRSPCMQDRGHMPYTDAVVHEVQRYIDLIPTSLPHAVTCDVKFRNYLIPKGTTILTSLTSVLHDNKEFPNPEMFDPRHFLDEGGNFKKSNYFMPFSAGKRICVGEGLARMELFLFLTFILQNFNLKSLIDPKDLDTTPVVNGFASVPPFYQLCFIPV

Solubility in D5W = conditions: in D5W
P450 3A4 = P450 3A4 (Homo sapiens, UniProt P08684); experiment: P450 inhibition 3A4; format: in vitro ADME
Sequence of P450 3A4 (P08684 whole entry): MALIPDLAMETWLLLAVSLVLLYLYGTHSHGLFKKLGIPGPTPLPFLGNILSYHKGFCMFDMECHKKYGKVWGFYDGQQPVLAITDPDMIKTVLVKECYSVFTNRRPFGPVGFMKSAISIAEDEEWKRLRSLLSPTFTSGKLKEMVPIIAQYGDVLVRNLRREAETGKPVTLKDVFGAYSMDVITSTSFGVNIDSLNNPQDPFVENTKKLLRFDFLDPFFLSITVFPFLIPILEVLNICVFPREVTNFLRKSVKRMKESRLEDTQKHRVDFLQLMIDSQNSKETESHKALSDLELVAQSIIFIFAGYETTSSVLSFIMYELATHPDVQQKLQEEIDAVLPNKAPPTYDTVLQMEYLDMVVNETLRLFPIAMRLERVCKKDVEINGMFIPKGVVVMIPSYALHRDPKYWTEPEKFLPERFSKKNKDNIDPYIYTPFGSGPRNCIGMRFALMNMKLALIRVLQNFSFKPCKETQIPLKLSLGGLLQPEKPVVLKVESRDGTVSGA

P450 1A2 = P450 1A2 (Homo sapiens, UniProt P05177); experiment: P450 inhibition 1A2; format: in vitro ADME
Sequence of P450 1A2 (P05177 whole entry): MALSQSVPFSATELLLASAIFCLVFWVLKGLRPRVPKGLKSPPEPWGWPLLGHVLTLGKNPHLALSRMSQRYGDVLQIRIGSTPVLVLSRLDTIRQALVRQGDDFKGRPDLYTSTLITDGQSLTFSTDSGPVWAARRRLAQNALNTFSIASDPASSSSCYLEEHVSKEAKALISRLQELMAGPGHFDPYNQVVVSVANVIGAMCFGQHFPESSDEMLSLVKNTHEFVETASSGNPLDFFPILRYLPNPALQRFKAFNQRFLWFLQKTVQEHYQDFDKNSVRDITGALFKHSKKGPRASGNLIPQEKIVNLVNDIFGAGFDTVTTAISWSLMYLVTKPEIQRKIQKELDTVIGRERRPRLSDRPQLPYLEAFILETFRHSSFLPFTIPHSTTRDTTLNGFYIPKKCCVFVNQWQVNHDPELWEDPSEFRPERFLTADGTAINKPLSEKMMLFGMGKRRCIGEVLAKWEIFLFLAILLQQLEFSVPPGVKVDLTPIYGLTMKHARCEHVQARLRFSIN

P450 2D6 = P450 2D6 (Homo sapiens, UniProt P10635); experiment: P450 inhibition 2D6; format: in vitro ADME
Sequence of P450 2D6 (P10635 whole entry): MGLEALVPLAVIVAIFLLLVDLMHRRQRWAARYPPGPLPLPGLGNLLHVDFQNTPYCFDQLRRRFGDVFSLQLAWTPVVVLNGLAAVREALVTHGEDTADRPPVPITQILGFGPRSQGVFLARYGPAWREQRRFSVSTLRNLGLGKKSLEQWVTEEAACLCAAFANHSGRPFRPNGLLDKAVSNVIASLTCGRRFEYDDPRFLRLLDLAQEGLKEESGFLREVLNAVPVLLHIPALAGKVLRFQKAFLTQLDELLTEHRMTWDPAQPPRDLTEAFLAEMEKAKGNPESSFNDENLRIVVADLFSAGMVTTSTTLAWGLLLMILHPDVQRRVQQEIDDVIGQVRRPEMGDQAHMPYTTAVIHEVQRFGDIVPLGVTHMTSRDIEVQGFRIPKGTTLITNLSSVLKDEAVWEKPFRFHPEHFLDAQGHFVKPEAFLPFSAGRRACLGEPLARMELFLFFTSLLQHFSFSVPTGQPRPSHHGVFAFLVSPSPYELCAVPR

P450 2C9 = P450 2C9 (Homo sapiens, UniProt P11712); experiment: P450 inhibition 2C9; format: in vitro ADME
Sequence of P450 2C9 (P11712 whole entry): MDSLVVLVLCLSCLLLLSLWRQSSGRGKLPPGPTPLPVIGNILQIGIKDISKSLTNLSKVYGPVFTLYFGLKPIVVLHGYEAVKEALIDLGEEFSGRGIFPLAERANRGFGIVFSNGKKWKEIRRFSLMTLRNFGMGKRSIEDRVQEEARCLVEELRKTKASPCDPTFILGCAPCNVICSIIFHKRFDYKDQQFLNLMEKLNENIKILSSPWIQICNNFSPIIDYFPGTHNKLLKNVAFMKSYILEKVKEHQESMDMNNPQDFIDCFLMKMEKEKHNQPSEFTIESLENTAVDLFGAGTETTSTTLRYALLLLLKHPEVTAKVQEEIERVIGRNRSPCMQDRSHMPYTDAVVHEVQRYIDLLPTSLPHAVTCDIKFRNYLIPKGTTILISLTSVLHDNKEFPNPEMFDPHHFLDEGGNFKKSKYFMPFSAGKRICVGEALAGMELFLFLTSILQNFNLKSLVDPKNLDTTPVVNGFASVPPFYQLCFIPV

C[C@@H]1[C@H](O)[C@@H](C)/C=C/C=C/C=C/C=C/C=C/C=C/C=C/[C@H](OC2O[C@H](C)[C@@H](O)[C@H](N)[C@@H]2O)C[C@@H]2O[C@](O)(C[C@@H](O)C[C@@H](O)[C@H](O)CC[C@@H](O)C[C@@H](O)CC(=O)O[C@H]1C)C[C@H](O)[C@H]2C(=O)O (stereo partly drawn) [AmB, Amphotericin B]
Mouse candidiasis model 5 mpk; Log (CFU/mL) (C. albicans SN250): 5.2 Log (CFU/mL)
MIC (Microsporum canis): 0.56 µM (≈ 0.517 µg/mL)
MIC (Fusarium solani; Fusarium solani, 2 isolates, Table 3A): 3 µM (≈ 2.77 µg/mL)
MIC (Fusarium solani; Fusarium solani, 6 isolates, AmB (AmBisome)): 1.33 µM (≈ 1.23 µg/mL)
Survival [1]: 80%
Renal toxicity biomarkers KIM1, LCN2, TIMP1, SPP1 (KIM1, LCN2, TIMP1, SPP1): elevated
MIC (Apophysomyces sp.): 0.75 µM (≈ 0.693 µg/mL)
MIC (Epidermophyton floccosum): 0.38 µM (≈ 0.351 µg/mL)
MIC (Mucor velutinosus; Mucor velutinosus): 0.08 µM (≈ 0.0739 µg/mL)
MIC (Candida glabrata): 1.4 µM (≈ 1.29 µg/mL)
Mouse single IV injection: mortality (40 mpk) [2]: 0/3
MIC (A. terreus; Aspergillus terreus, 5 isolates, Table 2A): 7 µM (≈ 6.47 µg/mL)
MIC (A. terreus; Aspergillus terreus, 6 isolates, AmB (AmBisome)): 3 µM (≈ 2.77 µg/mL)
MIC (Mucor janssenii; Mucor janssenii): 0.06 µM (≈ 0.0554 µg/mL)
MIC (Candida tropicalis): 0.8 µM (≈ 0.739 µg/mL)
MIC (Fonsecaeu sp.): < 0.03 µM
Binds Cholesterol [3]: Yes
MIC (A. calldoustus): 1.5 µM (≈ 1.39 µg/mL)
MIC (Cryptococcus neoformans; Cryptococcus neoformans, 3 isolates, Table 3A): 1.17 µM (≈ 1.08 µg/mL)
MIC (Cryptococcus neoformans; Cryptococcus neoformans, 10 isolates, Table 3): 0.55 µM (≈ 0.508 µg/mL)
MIC (Blastomyces dermatitidis; Blastomyces dermatitidis): < 0.03 µM
MIC (Scedosporium prolificans): > 16 µM
MIC (A. niger; Aspergillus niger): 0.21 µM (≈ 0.194 µg/mL)
MIC (Sporothrix schenckii; Sporothrix schenckii): 4 µM (≈ 3.7 µg/mL)
MIC (Candida albicans): 0.61 µM (≈ 0.564 µg/mL)
Survival [4]: 66%
MIC (Histoplasma capsulatum; Histoplasma capsulatum, read-out: MIC Histoplasma capsulatum): 0.06 µM (≈ 0.0554 µg/mL)
MIC (Saksenaea sp.): 0.06 µM (≈ 0.0554 µg/mL)
MIC (Malassezia furfur): > 16 µM
MIC (Scedosporium apiospermum): > 16 µM

CC1C=CC=CC=CC=CC=CC=CC=CC(OC2OC(C)C(O)C(N)C2O)CC2OC(O)(CC(O)CC(O)C(O)CCC(O)CC(O)CC(=O)OC(C)C(C)C1O)CC(O)C2C(=O)NC(CO)CO (stereo not drawn) [Compound 1]
P450 Inhibition (%) 2C19 (P450 2C19): 0.0%
Mouse candidiasis model 5 mpk; Log (CFU/mL) (C. albicans SN250): 4.8 Log (CFU/mL)
Solubility (Solubility in D5W): >7220 µM
MIC (Fusarium solani; 6 isolates, AmB (AmBisome)): 5.67 µM (≈ 5.65 µg/mL)
P450 Inhibition (%) 3A4 (P450 3A4): 14.5%
MIC (Apophysomyces sp.): 6.8 µM (≈ 6.78 µg/mL)
MIC (Mucor velutinosus): 0.67 µM (≈ 0.668 µg/mL)
Mouse single IV injection: mortality (40 mpk) [2]: 0/4
MIC (A. terreus; 6 isolates, AmB (AmBisome)): 2 µM (≈ 1.99 µg/mL)
MIC (Mucor janssenii): 0.5 µM (≈ 0.499 µg/mL)
MIC (Fonsecaeu sp.): <0.03 µM
Binds Cholesterol [3]: No
MIC (A. calldoustus): 2.17 µM (≈ 2.16 µg/mL)
MIC (Cryptococcus neoformans; 10 isolates, Table 3): 2 µM (≈ 1.99 µg/mL)
MIC (Blastomyces dermatitidis): 0.25 µM (≈ 0.249 µg/mL)
P450 Inhibition (%) 1A2 (P450 1A2): 8.7%
MIC (A. niger): 0.5 µM (≈ 0.499 µg/mL)
MIC (Sporothrix schenckii): 6 µM (≈ 5.98 µg/mL)
MIC Histoplasma capsulatum (Histoplasma capsulatum): 0.06 µM (≈ 0.0598 µg/mL)
P450 Inhibition (%) 2D6 (P450 2D6): 0.0%
MIC (Saksenaea sp.): 0.23 µM (≈ 0.229 µg/mL)
P450 Inhibition (%) 2C9 (P450 2C9): 26.9%

CC1C=CC=CC=CC=CC=CC=CC=CC(OC2OC(C)C(O)C(N)C2O)CC2OC(O)(CC(O)CC(O)C(O)CCC(O)CC(O)CC(=O)OC(C)C(C)C1O)CC(O)C2C(=O)NC(CO)(CO)CO (stereo not drawn) [Compound 2]
P450 Inhibition (%) 2C19 (P450 2C19): 1.1%
Solubility (Solubility in D5W): 366 µM (≈ 376 µg/mL)
MIC (Fusarium solani; 6 isolates, AmB (AmBisome)): 14 µM (≈ 14.4 µg/mL)
P450 Inhibition (%) 3A4 (P450 3A4): 14.5%
MIC (Apophysomyces sp.): 8.3 µM (≈ 8.53 µg/mL)
MIC (Mucor velutinosus): 1.17 µM (≈ 1.2 µg/mL)
MIC (A. terreus; 6 isolates, AmB (AmBisome)): 2.3 µM (≈ 2.36 µg/mL)
MIC (Mucor janssenii): 0.92 µM (≈ 0.945 µg/mL)
MIC (Fonsecaeu sp.): <0.03 µM
Binds Cholesterol [3]: No
MIC (A. calldoustus): 2.33 µM (≈ 2.39 µg/mL)
MIC (Cryptococcus neoformans; 10 isolates, Table 3): 2 µM (≈ 2.05 µg/mL)
MIC (Blastomyces dermatitidis): 0.6 µM (≈ 0.616 µg/mL)
P450 Inhibition (%) 1A2 (P450 1A2): 0.0%
MIC (A. niger): 0.75 µM (≈ 0.77 µg/mL)
MIC (Sporothrix schenckii): >5.2 µM
MIC Histoplasma capsulatum (Histoplasma capsulatum): 0.08 µM (≈ 0.0822 µg/mL)
P450 Inhibition (%) 2D6 (P450 2D6): 0.0%
MIC (Saksenaea sp.): 0.36 µM (≈ 0.37 µg/mL)
P450 Inhibition (%) 2C9 (P450 2C9): 0.0%
